Measurements taken from PubChem BioAssay (NCI).
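Tested at 5 concentrations; 48 h exposure; 96-well plates; endpoints linearly interpolated, else capped at highest concentration. TGI: total growth inhibition.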 *1 amine or outer side, *2 acyl side, *3 side chain or, on linkers, in order; H or OH if unused. Where a SMILES comes first, the peptide text is derived from it. Bridges are numbered along the chain shown (N, C = ends). [ ]: non-standard residue; d: D form. ξ: configuration not given here. X35 = CC[C@H](C)[C@@H](N[*:1])[C@@H](O)CC(=O)O[C@H](C(=O)[C@H](C)C(=O)[*:2])C(C)C; NMeY = CN[C@@H](Cc1ccc(O)cc1)C(=O)O; dNMeL = CN[C@H](CC(C)C)C(=O)O; ξΔPro = O=C(O)C1C=CCN1

Tests used:
Assay in all cases: NCI anticancer screen, dose series, 48 h
786-0 renal = test system: 786-0 renal
A498 renal = test system: A498 renal
A549 NSCLC = test system: A549 NSCLC
ACHN renal = test system: ACHN renal
BT-549 breast = test system: BT-549 breast
CAKI-1 renal = test system: CAKI-1 renal
CCRF-CEM leukemia = test system: CCRF-CEM leukemia
COLO 205 colon = test system: COLO 205 colon
DU-145 prostate = test system: DU-145 prostate
EKVX NSCLC = test system: EKVX NSCLC
HCT-116 colon = test system: HCT-116 colon
HCT-15 colon = test system: HCT-15 colon
HL-60(TB) leukemia = test system: HL-60(TB) leukemia
HOP-62 NSCLC = test system: HOP-62 NSCLC
HOP-92 NSCLC = test system: HOP-92 NSCLC
HS 578T breast = test system: HS 578T breast
HT29 colon = test system: HT29 colon
IGROV1 ovarian = test system: IGROV1 ovarian
K-562 leukemia = test system: K-562 leukemia
KM12 colon = test system: KM12 colon
LOX IMVI melanoma = test system: LOX IMVI melanoma
M14 melanoma = test system: M14 melanoma
MALME-3M melanoma = test system: MALME-3M melanoma
MCF7 breast = test system: MCF7 breast
MDA-MB-231 breast = test system: MDA-MB-231 breast
MDA-MB-435 = test system: MDA-MB-435
MDA-N = test system: MDA-N
MOLT-4 leukemia = test system: MOLT-4 leukemia
NCI-H226 lung = test system: NCI-H226 lung
NCI-H23 lung = test system: NCI-H23 lung
NCI-H460 lung = test system: NCI-H460 lung
NCI-H522 lung = test system: NCI-H522 lung
NCI/ADR-RES ovarian = test system: NCI/ADR-RES ovarian
OVCAR-3 ovarian = test system: OVCAR-3 ovarian
OVCAR-4 ovarian = test system: OVCAR-4 ovarian
OVCAR-5 ovarian = test system: OVCAR-5 ovarian
OVCAR-8 ovarian = test system: OVCAR-8 ovarian
PC-3 prostate = test system: PC-3 prostate
RPMI-8226 leukemia = test system: RPMI-8226 leukemia
RXF 393 renal = test system: RXF 393 renal
SF-268 CNS = test system: SF-268 CNS
SF-295 CNS = test system: SF-295 CNS
SF-539 CNS = test system: SF-539 CNS
SK-MEL-2 melanoma = test system: SK-MEL-2 melanoma
SK-MEL-28 melanoma = test system: SK-MEL-28 melanoma
SK-MEL-5 melanoma = test system: SK-MEL-5 melanoma
SK-OV-3 ovarian = test system: SK-OV-3 ovarian
SN12C renal = test system: SN12C renal
SNB-19 CNS = test system: SNB-19 CNS
SR leukemia = test system: SR leukemia
SW-620 colon = test system: SW-620 colon
T-47D breast = test system: T-47D breast
TK-10 renal = test system: TK-10 renal
U251 CNS = test system: U251 CNS
UACC-257 melanoma = test system: UACC-257 melanoma
UACC-62 melanoma = test system: UACC-62 melanoma
UO-31 renal = test system: UO-31 renal
HCC-2998 colon = test system: HCC-2998 colon
SNB-75 CNS = test system: SNB-75 CNS

## NNS(=O)(=O)c1cc(C(=O)O)cc(C(=O)O)c1
786-0 renal
  TGI: > 100 µM
A498 renal
  TGI: > 100 µM
A549 NSCLC
  TGI: > 100 µM
ACHN renal
  TGI: > 100 µM
BT-549 breast
  TGI: > 100 µM
CAKI-1 renal
  TGI: > 100 µM
CCRF-CEM leukemia
  TGI: > 100 µM
COLO 205 colon
  TGI: > 100 µM
DU-145 prostate
  TGI: > 100 µM
EKVX NSCLC
  TGI: > 100 µM
HCT-116 colon
  TGI: > 100 µM
HCT-15 colon
  TGI: > 100 µM
HL-60(TB) leukemia
  TGI: > 100 µM
HOP-62 NSCLC
  TGI: > 100 µM
HOP-92 NSCLC
  TGI: > 100 µM
HS 578T breast
  TGI: > 100 µM
HT29 colon
  TGI: > 100 µM
IGROV1 ovarian
  TGI: > 100 µM
K-562 leukemia
  TGI: > 100 µM
KM12 colon
  TGI: > 100 µM
LOX IMVI melanoma
  TGI: > 100 µM
M14 melanoma
  TGI: > 100 µM
MALME-3M melanoma
  TGI: > 100 µM
MCF7 breast
  TGI: > 100 µM
MDA-MB-231 breast
  TGI: > 100 µM
MDA-MB-435
  TGI: > 100 µM
MDA-N
  TGI: > 100 µM
MOLT-4 leukemia
  TGI: > 100 µM
NCI-H226 lung
  TGI: > 100 µM
NCI-H23 lung
  TGI: > 100 µM
NCI-H460 lung
  TGI: > 100 µM
NCI-H522 lung
  TGI: > 100 µM
NCI/ADR-RES ovarian
  TGI: > 100 µM
OVCAR-3 ovarian
  TGI: > 100 µM
OVCAR-4 ovarian
  TGI: > 100 µM
OVCAR-5 ovarian
  TGI: > 100 µM
OVCAR-8 ovarian
  TGI: > 100 µM
PC-3 prostate
  TGI: > 100 µM
RPMI-8226 leukemia
  TGI: > 100 µM
RXF 393 renal
  TGI: > 100 µM
SF-268 CNS
  TGI: > 100 µM
SF-295 CNS
  TGI: > 100 µM
SF-539 CNS
  TGI: > 100 µM
SK-MEL-2 melanoma
  TGI: > 100 µM
SK-MEL-28 melanoma
  TGI: > 100 µM
SK-MEL-5 melanoma
  TGI: > 100 µM
SK-OV-3 ovarian
  TGI: > 100 µM
SN12C renal
  TGI: > 100 µM
SNB-19 CNS
  TGI: > 100 µM
SR leukemia
  TGI: > 100 µM
SW-620 colon
  TGI: > 100 µM
T-47D breast
  TGI: > 100 µM
TK-10 renal
  TGI: > 100 µM
U251 CNS
  TGI: > 100 µM
UACC-257 melanoma
  TGI: > 100 µM
UACC-62 melanoma
  TGI: > 100 µM
UO-31 renal
  TGI: > 100 µM

## COC(=O)/C=C1\C(=O)C=C2[C@@H]3C[C@H]4C[C@H](CC[C@@]4(C)N21)C3(C)NC(C)=O (stereo partly specified)
786-0 renal
  TGI: 14.3 µM
A498 renal
  TGI: 38.9 µM
A549 NSCLC
  TGI: > 57.4 µM
ACHN renal
  TGI: 46 µM
BT-549 breast
  TGI: 24.8 µM
CAKI-1 renal
  TGI: 26.3 µM
CCRF-CEM leukemia
  TGI: 34.7 µM
COLO 205 colon
  TGI: > 36.8 µM
DU-145 prostate
  TGI: 32.8 µM
EKVX NSCLC
  TGI: 30.6 µM
HCC-2998 colon
  TGI: > 64.9 µM
HCT-116 colon
  TGI: 24 µM
HCT-15 colon
  TGI: > 52.7 µM
HL-60(TB) leukemia
  TGI: > 100 µM
HOP-62 NSCLC
  TGI: 60.7 µM
HOP-92 NSCLC
  TGI: 47.5 µM
HS 578T breast
  TGI: 39 µM
HT29 colon
  TGI: 28.2 µM
IGROV1 ovarian
  TGI: 40.7 µM
K-562 leukemia
  TGI: > 100 µM
KM12 colon
  TGI: 33.2 µM
LOX IMVI melanoma
  TGI: > 100 µM
M14 melanoma
  TGI: 26.4 µM
MCF7 breast
  TGI: 68.7 µM
MDA-MB-231 breast
  TGI: 56.2 µM
MDA-MB-435
  TGI: 28.5 µM
MDA-N
  TGI: 33.4 µM
MOLT-4 leukemia
  TGI: 34.3 µM
NCI-H226 lung
  TGI: 55.1 µM
NCI-H23 lung
  TGI: > 60.6 µM
NCI-H460 lung
  TGI: > 100 µM
NCI-H522 lung
  TGI: 3.6 µM
NCI/ADR-RES ovarian
  TGI: > 77 µM
OVCAR-3 ovarian
  TGI: 29 µM
OVCAR-4 ovarian
  TGI: 44 µM
OVCAR-5 ovarian
  TGI: 35.7 µM
OVCAR-8 ovarian
  TGI: 51.2 µM
PC-3 prostate
  TGI: 31.4 µM
RPMI-8226 leukemia
  TGI: > 100 µM
RXF 393 renal
  TGI: > 39.9 µM
SF-268 CNS
  TGI: 22.9 µM
SF-295 CNS
  TGI: 44.1 µM
SF-539 CNS
  TGI: 9.54 µM
SK-MEL-2 melanoma
  TGI: 38.9 µM
SK-MEL-28 melanoma
  TGI: 11.2 µM
SK-MEL-5 melanoma
  TGI: > 60 µM
SK-OV-3 ovarian
  TGI: 55.7 µM
SN12C renal
  TGI: 26.6 µM
SNB-19 CNS
  TGI: > 56.7 µM
SNB-75 CNS
  TGI: 27.4 µM
SR leukemia
  TGI: 99.7 µM
SW-620 colon
  TGI: 24.7 µM
T-47D breast
  TGI: > 27.8 µM
TK-10 renal
  TGI: 33.9 µM
U251 CNS
  TGI: > 56.9 µM
UACC-257 melanoma
  TGI: 52.5 µM
UACC-62 melanoma
  TGI: 35 µM
UO-31 renal
  TGI: > 52.4 µM

## CC[C@H](C)[C@H]1NC(=O)[C@@H](NC(=O)[C@@H](CC(C)C)N(C)C(=O)C2C=CCN2)[C@@H](C)OC(=O)[C@H](Cc2ccc(OC)cc2)N(C)C(=O)[C@@H]2CCCN2C(=O)[C@H](CC(C)C)NC(=O)[C@@H](C)C(=O)[C@H](C(C)C)OC(=O)C[C@@H]1O (stereo partly specified) (H-[ξΔPro][dNMeL]T[X35]LP[NMeY](Me); ester 3-C)
786-0 renal
  TGI: 0.0597 µM
A498 renal
  TGI: 0.0139 µM
A549 NSCLC
  TGI: > 50 µM
ACHN renal
  TGI: 0.061 µM
BT-549 breast
  TGI: 0.345 µM
CAKI-1 renal
  TGI: 0.378 µM
CCRF-CEM leukemia
  TGI: > 50 µM
COLO 205 colon
  TGI: 9.32 µM
DU-145 prostate
  TGI: 0.251 µM
EKVX NSCLC
  TGI: 0.168 µM
HCC-2998 colon
  TGI: 0.0488 µM
HCT-116 colon
  TGI: 5.41 µM
HCT-15 colon
  TGI: 1.78 µM
HL-60(TB) leukemia
  TGI: > 50 µM
HOP-62 NSCLC
  TGI: 0.0363 µM
HOP-92 NSCLC
  TGI: 0.171 µM
HS 578T breast
  TGI: < 0.005 µM
HT29 colon
  TGI: < 0.005 µM
IGROV1 ovarian
  TGI: 0.115 µM
K-562 leukemia
  TGI: > 50 µM
KM12 colon
  TGI: 0.447 µM
LOX IMVI melanoma
  TGI: 0.0161 µM
M14 melanoma
  TGI: 0.111 µM
MALME-3M melanoma
  TGI: 0.0146 µM
MCF7 breast
  TGI: 0.423 µM
MDA-MB-231 breast
  TGI: < 0.0464 µM
MDA-MB-435
  TGI: 0.0687 µM
MDA-N
  TGI: 0.081 µM
MOLT-4 leukemia
  TGI: > 50 µM
NCI-H226 lung
  TGI: < 0.005 µM
NCI-H23 lung
  TGI: 0.0198 µM
NCI-H460 lung
  TGI: 0.114 µM
NCI-H522 lung
  TGI: < 0.005 µM
NCI/ADR-RES ovarian
  TGI: 0.52 µM
OVCAR-4 ovarian
  TGI: < 0.005 µM
OVCAR-5 ovarian
  TGI: > 50 µM
OVCAR-8 ovarian
  TGI: 0.0118 µM
PC-3 prostate
  TGI: 1.06 µM
RXF 393 renal
  TGI: 0.0285 µM
SF-268 CNS
  TGI: 0.00802 µM
SF-295 CNS
  TGI: 0.055 µM
SK-MEL-2 melanoma
  TGI: 0.0115 µM
SK-MEL-28 melanoma
  TGI: < 0.005 µM
SK-MEL-5 melanoma
  TGI: 0.0756 µM
SK-OV-3 ovarian
  TGI: 0.183 µM
SN12C renal
  TGI: > 50 µM
SNB-19 CNS
  TGI: 0.00706 µM
SNB-75 CNS
  TGI: 0.0107 µM
SR leukemia
  TGI: 2.54 µM
SW-620 colon
  TGI: > 50 µM
T-47D breast
  TGI: 0.136 µM
TK-10 renal
  TGI: 0.0516 µM
U251 CNS
  TGI: 0.738 µM
UACC-257 melanoma
  TGI: 0.239 µM
UACC-62 melanoma
  TGI: 0.00602 µM
UO-31 renal
  TGI: 0.303 µM
